Assay results reported in patent US10487115B2, “Proteinaceous compounds and uses therefor” (UNIVERSITY OF CANBERRA, priority 2016, dated 2019).
Ends that are not written are not given here. * marks the point of attachment. Myristoyl = CCCCCCCCCCCCCC(=O)*

Experiments:
[1] = test system: MDA-MB-231 xenograft; assay: Balb/c-nude MDA-MB-231 xenograft breast cancer model: tumor volume and cancer stem cell proportion; format: in vivo, balb/c-nude mice
Protocol: A Balb/c-nude MDA-MB-231 xenograft breast cancer model was utilized to determine the effect of the importinib peptides alone and in combination with the chemotherapeutic, docetaxel in comparison to a randomized peptide control.
Five week old balb/c-nude mice (n=5 per test compound) were injected with MDA-MB-231 human breast carcinoma cell suspensions (2×10^6 cells in 25 μL PBS mixed with 25 μL of BD Matrigel Matrix) subcutaneously into the right mammary gland. Test compounds in a saline vehicle [4 mg/kg docetaxel; 8 mg/kg, 40 mg/kg and 60 mg/kg importinib4759 or importinib4759_O1 (synthesized in accordance with Example 1); 4 mg/kg docetaxel with 8 mg/kg importinib4759 or importinib4759_O1; 4 mg/kg docetaxel with 40 mg/kg importinib4759 or importinib4759_O1; 4 mg/kg docetaxel with 60 mg/kg importinib4759 or importinib4759_O1; or randomized peptide control] were injected intraperitoneally. Tumor volume was assessed using calipers daily over a period of five weeks following treatment. Animals were sacrificed after the five week period. Tumor grafts were removed using resection and processed into single cell suspensions. The percentage of cancer stem cells was determined using FACS analysis. FACS staining was performed using anti-human CD44-APC, anti-human CD24-PE, Hoechst, and anti-human EpCAM antibody cocktails. Data was collected from BD FACSLSR-II flow cytometer. Treestar FlowJo was used for data analysis. Significance was determined using a one-way ANOVA or Mann-Whitney T-test.

[2] = test system: cancer stem cell markers (CSV, LSD1p, PKC-θ and PDL1); assay: Expression of cancer stem cell markers in MDA-MB-231 xenograft cells (confocal microscopy, TNFI/TCFI); format: in vivo, Balb-c nude mice; settings: importinib4759 40 mg/kg, docetaxel 4 mg/kg
Protocol: The effect of Importinib4759 on the expression of cancer stem cell markers in MDA-MB-231 xenograft breast cancer cells from Balb-c nude mice was evaluated using confocal laser scanning microscopy.
MDA-MB-231 xenograft breast cancer cells from Balb-c nude mice were treated and prepared as per the method of Example 7. Test compounds included control (saline), docetaxel (4 mg/kg), importinib4759 (40 mg/kg; synthesized in accordance with Example 1) or a combination of importinib4759 (40 mg/kg) and docetaxel (4 mg/kg). The single cell suspensions were fixed with 3.7% formaldehyde and permeabilized with 2% Triton-X-100 and were then probed with primary mouse antibodies to CSV, primary goat antibodies to PDL1 and primary rabbit antibodies to phosphorylated LSD1 (LSD1p; lysine-specific histone demethylase 1A) or PKC-θ followed by the corresponding secondary antibody conjugated to anti mouse Alexa-Fluor 568, anti-goat Alexa-Fluor 633 or anti-rabbit Alexa-Fluor 488. The cell nucleus was stained with anti-fade DAPI. TNFI (Total Nuclear Fluorescence Intensity) or TCFI (Total Cytoplasmic Fluorescence Intensity) values were calculated for at least 20 individual cells per sample. Data shown represent the mean±SE grouped into time point of collection.

[3] = test system: MDA-MB-231 cells; assay: CD44hiCD24lo cancer stem cells in MDA-MB-231 model (FACS); format: cell-based, human; settings: 50 μM or 100 μM importinib4759, 48 hr, p<0.0001 relative to control
Protocol: (§1) 5×10^4 MDA-MB-231 cells were seeded with 1 mL of complete DMEM in 12 well plates overnight, then importinib4759 (5004 and 100 μM; synthesized in accordance with Example 1) or importinib4759_O1 (2504 and 50 μM; synthesized in accordance with Example 1) were used to treat cells for 48 hr before samples were harvested by trypsinization followed by washing with DPBS containing 2% HI-FBS. FACS staining was performed using anti-human CD44-APC, anti-human CD24-PE, Hoechst, and anti-human EpCAM antibody cocktails. Data was collected from BD FACSLSR-II flow cytometer. Treestar FlowJo was used for data analysis.

[4] = test system: M1 macrophage markers (LSD1p, CCR7 and CD38); assay: Expression of M1 macrophage markers in MDA-MB-231 xenograft cells (confocal microscopy, TNFI/TCFI); format: in vivo, Balb-c nude mice; settings: importinib4759 40 mg/kg, docetaxel 4 mg/kg
Protocol: (§2) The effect of Importinib4759 on the expression of cancer associated fibroblast (CAF) and macrophage in MDA-MB-231 xenograft breast cancer cells from Balb-c nude mice was evaluated using confocal laser scanning microscopy. MDA-MB-231 xenograft breast cancer cells from Balb-c nude mice were treated and prepared as per the method of Example 7. Test compounds included control (saline), docetaxel (4 mg/kg), importinib4759 (40 mg/kg; synthesized in accordance with Example 1) or a combination of importinib4759 (40 mg/kg) and docetaxel (4 mg/kg). The single cell suspensions were fixed with 3.7% formaldehyde and permeabilized with 2% Triton-X-100 and were then probed with a set of CAF signature antibodies [primary mouse antibodies to FAP (fibroblast activation protein), primary goat antibodies to CCL2 (chemokine (C-C motif) ligand 2) and primary rabbit antibodies to LSD1 (lysine-specific histone demethylase 1A; a target of PKC-θ)] or M1 macrophage markers [primary mouse antibodies to CCR[…] chemokine receptor type 7), primary goat antibodies to CD38 (cluster of differentiation 38) and primary rabbit antibodies to LSD1p (a target of PKC-θ)], followed by the corresponding secondary antibody conjugated to anti mouse Alexa-Fluor 568, anti-goat Alexa-Fluor 633 or anti-rabbit Alexa-Fluor 488. […] TNFI or TCFI values were calculated for at least 20 individual cells per sample. […]

[5] = test system: MCF7 cells; assay: CD44hiCD24lo cancer stem cell formation in MCF-IM model (FACS); format: cell-based, human; settings: importinib4759 5004 and 100 μM, importinib4759_O1 2504 and 50 μM, 24 hr before PMA 60 hr, p=0.0079 relative to control
Protocol: as §1, with “5×10^4 MCF7” for “5×10^4 MDA-MB-231”, “for 24” for “for 48”, “before stimulation with PMA for 60 hr. Samples” for “before samples”, “2% heat inactivated foetal bovine serum (HI-FBS).” for “2% HI-FBS.”, “staining were” for “staining was”

[6] = test system: CAF markers (FAP, LSD1 and CCL2); assay: Expression of CAF markers in MDA-MB-231 xenograft cells (confocal microscopy, TNFI/TCFI); format: in vivo, Balb-c nude mice; settings: importinib4759 40 mg/kg, docetaxel 4 mg/kg
Protocol: as §2

[7] = target: T1, PKC-θ (Homo sapiens, UniProt Q04759); assay: Nuclear translocation of PKC-θ in PMA-stimulated MCF7 cells (immunofluorescence, Fn/c); format: cell-based; settings: 50 μM peptide 24 hr, then PMA 0.65 ng/mL 60 hr, N-myristoylated peptides, p<0.0001 relative to control
T1 construct: endogenous in cells; host or cells: MCF7
Protocol: MCF7 cells were pre-seeded overnight on sterile coverslips in 12 well plates with 1 mL of completed Dulbecco's modified eagle medium (DMEM) before incubating with 50 μM of importinib4759 (synthesized in accordance with Example 1) and importinib4759_O1 (synthesized in accordance with Example 1) for 24 hr. Test peptides were not removed when MCF7 cells were stimulated with 0.65 ng/mL of phorbol 12-myristate 13-acetate (PMA) for 60 hr. Diethylpyrocarbonate (DEPC)-water was used for control (test peptides were dissolved in sterile DEPC-water). After wash with Dulbecco's phosphate buffered saline (DPBS) twice, samples on coverslips were fixed with 4% paraformaldehyde for 10 minutes and stained with PKC-θ (Cat. SC-212), PKC-θ-Phosphor-T538, PKC-β2, PKC-α, Importin α, or Importin 8 primary Antibody respectively and conjugated Alexa-488 secondary Antibody. Cell nucleus was stained with anti-fade 2-(4-amidinophenyl)-6-indolecarbamidine dihydrochloride (DAPI). When samples were dried overnight, Nikon fluorescence microscopy was used to take photos. ImageJ software was used for densimetric analysis. Fn/c was calculated using the formula: Fn/c=(nuclear density-background density)/(cytoplasmic density-background density).

[8] = target: T1, PKC-θ; assay: Nuclear localization of PKC-θ (PKC-θ-phosphor-T538 antibody) in MCF7 cells treated with peptide inhibitors of other PKC isoforms; format: cell-based; settings: 50 μM peptide inhibitor 24 hr, PMA 0.65 ng/mL 60 hr, N-myristoylated
Protocol: nPKC-β1, nPKC-ε and nPKC-δ peptide inhibitors were designed based on the nuclear localization signal of PKC-β1, PKC-ε and PKC-δ respectively. These peptides were synthesized and N-myristoylated using the method of Example 1.
MCF7 cells were pre-seeded overnight on sterile coverslips in 12 well plates with 1 mL of completed DMEM before inhibiting with 50 μM of nPKC-β1, nPKC-ε or nPKC-δ peptide inhibitor respectively for 24 hr. Inhibitors were not removed when MCF7 cells were stimulated with 0.65 ng/mL of PMA for 60 hr. DEPC-water was used for control (test peptides were dissolved in sterile DEPC-water). After washing with DPBS twice, samples on coverslips were fixed with 4% paraformaldehyde for 10 minutes and stained with PKC-θ-phosphor-T538 primary Antibody and conjugated Alexa-488 secondary Antibody. Cell nucleus was stained with anti-fade DAPI. When samples were dried overnight, Nikon fluorescence microscopy was used to take photos. ImageJ software was used for densimetric analysis. Fn/c was calculated using the formula: Fn/c=(nuclear density-background density)/(cytoplasmic density-background density).

T1 sequence (Q04759 whole entry): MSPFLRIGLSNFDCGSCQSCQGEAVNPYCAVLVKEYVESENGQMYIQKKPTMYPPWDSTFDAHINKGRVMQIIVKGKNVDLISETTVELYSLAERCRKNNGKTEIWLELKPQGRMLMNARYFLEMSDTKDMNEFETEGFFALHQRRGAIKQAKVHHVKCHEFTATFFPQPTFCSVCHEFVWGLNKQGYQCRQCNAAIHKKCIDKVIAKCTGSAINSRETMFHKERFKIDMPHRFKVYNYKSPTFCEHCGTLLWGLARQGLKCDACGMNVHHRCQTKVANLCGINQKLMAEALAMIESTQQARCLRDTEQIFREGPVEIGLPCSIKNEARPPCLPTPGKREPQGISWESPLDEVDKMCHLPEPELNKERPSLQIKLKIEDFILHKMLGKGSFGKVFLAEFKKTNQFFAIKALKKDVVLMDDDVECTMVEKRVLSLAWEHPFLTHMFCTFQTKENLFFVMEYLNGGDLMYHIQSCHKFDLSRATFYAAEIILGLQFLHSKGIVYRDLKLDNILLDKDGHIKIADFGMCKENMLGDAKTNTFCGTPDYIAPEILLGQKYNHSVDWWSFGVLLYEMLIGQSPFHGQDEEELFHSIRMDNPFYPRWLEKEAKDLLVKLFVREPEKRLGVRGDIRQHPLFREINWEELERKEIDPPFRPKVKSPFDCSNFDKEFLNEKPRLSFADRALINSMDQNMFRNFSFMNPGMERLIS

Molecule | expression of cancer stem cell markers (CSV, LSD1p, PKC-θ, PDL1) [2] | expression of M1 macrophage markers (LSD1p, CCR7, CD38; docetaxel result stated for CCR7 and CD38) [4] | expression of CAF markers (FAP, LSD1np, CCL2) [6] | effect on nuclear localization of PKC-θ [8] | further results
RKEIDPPFRPKVK-OH (Myristoyl-RKEIDPPFRPKVK-OH; SMILES CCCCCCCCCCCCCC(=O)N[C@@H](CCCNC(=N)N)C(=O)N[C@@H](CCCCN)C(=O)N[C@@H](CCC(=O)O)C(=O)N[C@H](C(=O)N[C@@H](CC(=O)O)C(=O)N1CCC[C@H]1C(=O)N1CCC[C@H]1C(=O)N[C@@H](Cc1ccccc1)C(=O)N[C@@H](CCCNC(=N)N)C(=O)N1CCC[C@H]1C(=O)N[C@@H](CCCCN)C(=O)N[C@H](C(=O)N[C@@H](CCCCN)C(=O)O)C(C)C)[C@@H](C)CC) [Importinib4759, tested N-myristoylated] | significantly abrogated expression of cancer stem cell markers | augmented | abrogated expression of CAF markers |  | cancer stem cell (CD44highCD24low) population in tumor grafts ([1]; FACS of resected tumor grafts after five weeks): significantly abrogating the cancer stem cell population; tumor volume in comparison to the control or docetaxel treatment alone ([1]; intraperitoneal, peptide 8, 40 and 60 mg/kg, docetaxel 4 mg/kg, five weeks): abrogating tumor volume; tumor volume over time ([1]; intraperitoneal, peptide 8, 40 and 60 mg/kg, docetaxel 4 mg/kg, five weeks, n=5): significantly reduced tumor volume over time; reduction of CD44hiCD24lo cancer stem cells [3]: Significant reduction of cancer stem cells; cancer stem cell (CD44hiCD24lo) formation [5]: inhibited; blocking of nuclear PKC-θ (nuclear translocation) [7]: capable of blocking nuclear PKC-θ
KKIKPPFKPRIKTKR (Myristoyl-KKIKPPFKPRIKTKR) [nPKC-ε] |  |  |  | had no effect | 
KRRLEPPFRPKVK [nPKC-δ] |  |  |  | had no effect | 
RKEIQPPYKPKAR (Myristoyl-RKEIQPPYKPKAR) [nPKC-β1] |  |  |  | had no effect | 
CC(=O)O[C@@]12CO[C@@H]1C[C@H](O)[C@@]1(C)C(=O)[C@H](O)C3=C(C)[C@@H](OC(=O)[C@H](O)[C@@H](NC(=O)OC(C)(C)C)c4ccccc4)C[C@@](O)([C@@H](OC(=O)c4ccccc4)[C@H]21)C3(C)C [docetaxel, reference compound] | increased expression of cancer stem cell markers | unaffected | significantly increased the expression of CAF markers |  | 
